Legend:
[1] = system: patients with myotonia; test: Disease history: previous treatments for myotonia and myalgia (case reports); details: for effect of previous treatment on myotonia, patient 6: CLCN1-congenital myotonia; for effect of previous treatment on myotonia, patient 6 / outcome of previous treatment of myotonia, patient 2 / outcome of previous treatment of myalgia, patient 2: disease history; for outcome of previous treatment of myotonia, patient 2 / outcome of previous treatment of myalgia, patient 2: DM2
Text: This person was diagnosed with DM2. As DM2-related comorbidities they have diabetes mellitus type 2 without diabetic neuropathy, and controlled paroxysmal atrial fibrillation. Their main muscular complaints have always been a severe grip myotonia and myotonia of the legs while walking, as well as persistent myalgia especially at lower back. In the last several years they developed a proximal and axial muscle weakness (MRC grade 4). […] After discussing potential risks and benefits, a compassionate use with low dose CBD/THC has been started.
This person was diagnosed with CLCN1-congenital myotonia. They have a severe therapy-resistant grip and generalized myotonia.

[2] = system: dystrophic mdx mice; details: injection; mostly via activation of TRPV1 and TRPA1; cited from earlier work

## Nc1nnc(-c2cccc(Cl)c2Cl)c(N)n1 [lamotrigine]
[1]
  effect of previous treatment on myotonia, patient 6: no relevant improvement of myotonia was obtained

## C=C(C)[C@@H]1CCC(C)=C[C@H]1c1c(O)cc(CCCCC)cc1O [CBD, Cannabidiol]
[2]
  myotube formation and inflammation: promoted myotube formation and reduced inflammation

## Cc1cccc(C)c1OCC(C)N (stereo not shown) [mexiletine]
[1]
  effect of previous treatment on myotonia, patient 6: improved the myotonia
  outcome of previous treatment of myotonia, patient 2: suspended due to inefficacy and risk of cardiac arrhythmias
[1]; resolved on drug discontinuation
  drug-related side effect of previous treatment, patient 6: severe major depression

## COc1ccccc1OCC(O)COC(N)=O (stereo not shown) [methocarbamol]
[1]
  outcome of previous treatment of myalgia, patient 2: unsuccessfully treated

## CC(C)C[C@H](CN)CC(=O)O [pregabalin]
[1]
  outcome of previous treatment of myalgia, patient 2: unsuccessfully treated
  outcome of previous treatment of myotonia, patient 2: suspended due to inefficacy and risk of cardiac arrhythmias

## O=C(NCC1CCCCN1)c1cc(OCC(F)(F)F)ccc1OCC(F)(F)F (stereo not shown) [flecainid]
[1]
  effect of previous treatment on myotonia, patient 6: no relevant improvement of myotonia was obtained

## NC(=O)N1c2ccccc2C=Cc2ccccc21 [carbamazepine]
[1]
  effect of previous treatment on myotonia, patient 6: no relevant improvement of myotonia was obtained
  outcome of previous treatment of myotonia, patient 2: suspended due to inefficacy and risk of cardiac arrhythmias

## CC(C)Cc1ccc(C(C)C(=O)O)cc1 (stereo not shown) [ibuprofen]
[1]
  outcome of previous treatment of myalgia, patient 2: unsuccessfully treated

## Cc1ccc(C(=O)C(C)CN2CCCCC2)cc1 (stereo not shown) [tolperisone]
[1]
  effect of previous treatment on myotonia, patient 6: no relevant improvement of myotonia was obtained

From US10702495B2, “Method and compositions for treating dystrophies and myotonia” (priority 2017, dated 2020)
